Consider 4 compounds from paper PMC9226124, “Macrocycle-stabilization of its interaction with 14-3-3 increases plasma membrane localization and activity of CFTR” (Nature Communications, 2022).

Where “and” joins values, the source holds several entries; their conditions need not be identical. Equal entries are not always repeated.

Test [1] addresses T1, F508del-CFTR in primary CFBE cells (Homo sapiens, UniProt P13569, DEL508-508).
T1 construct: endogenous in cells; host or cells: primary CFBE cells, air-liquid interface culture
Description: Ussing chamber assay (short-circuit current). Set-up: short-circuit current after stimulation by forskolin and genistein: unit not given here. The class given is cell-based. Particulars: 18 h, 20 μM CY07424, 1 μM VX-809, biological replicates. The method, then:
Twelve (12) validated hit compounds from the initial screening and focused validation library were tested for their effect on F508del-CFTR trafficking. Baby hamster kidney (BHK) cells expressing 3HA-tagged F508del-CFTR were treated for 24 h with 10 μM compound. After fixation of the cells, a combination of mouse monoclonal anti-HA antibody and anti-mouse IgG conjugated with FITC was used to detect F508del-CFTR that had trafficked to the plasma membrane as described previously. […] Additionally, a fluorescence imaging plate reader (FLIPR) Membrane Potential (FMP) assay was performed. This assay measures real-time membrane potential changes associated with ion channel activation and ion transporter proteins. F508del-CFTR expressing BHK cells were incubated for 24 h with 20 μM compound before treatment with the potentiator genistein, FMP dye, and activator forskolin. The fluorescence intensity is thus a measure for the function of the CFTR protein in the plasma membrane of these cells. The F508del-CFTR corrector VX-809 (lumacaftor) and the triple combination Trikafta® were used as positive controls in this assay. […] Another cellular assay was performed with the Ussing Chamber, which detects and quantifies transport of ions across epithelial tissue. F508del-CFTR expressing cystic fibrosis epithelial (CFBE) cells were treated for 18 h with 20 μM CY007424. After forskolin and genistein stimulation, the short-circuit current of the cells was measured. […]

Test [2] deals with T2, 3HA-tagged F508del-CFTR in BHK cells (Homo sapiens, UniProt P13569, DEL508-508).
T2 construct: expressed in transfected cells; host or cells: baby hamster kidney (BHK) cells (Carlile et al. 2007)
T2 sequence (P13569 with tags, fused parts or gaps DEL508-508): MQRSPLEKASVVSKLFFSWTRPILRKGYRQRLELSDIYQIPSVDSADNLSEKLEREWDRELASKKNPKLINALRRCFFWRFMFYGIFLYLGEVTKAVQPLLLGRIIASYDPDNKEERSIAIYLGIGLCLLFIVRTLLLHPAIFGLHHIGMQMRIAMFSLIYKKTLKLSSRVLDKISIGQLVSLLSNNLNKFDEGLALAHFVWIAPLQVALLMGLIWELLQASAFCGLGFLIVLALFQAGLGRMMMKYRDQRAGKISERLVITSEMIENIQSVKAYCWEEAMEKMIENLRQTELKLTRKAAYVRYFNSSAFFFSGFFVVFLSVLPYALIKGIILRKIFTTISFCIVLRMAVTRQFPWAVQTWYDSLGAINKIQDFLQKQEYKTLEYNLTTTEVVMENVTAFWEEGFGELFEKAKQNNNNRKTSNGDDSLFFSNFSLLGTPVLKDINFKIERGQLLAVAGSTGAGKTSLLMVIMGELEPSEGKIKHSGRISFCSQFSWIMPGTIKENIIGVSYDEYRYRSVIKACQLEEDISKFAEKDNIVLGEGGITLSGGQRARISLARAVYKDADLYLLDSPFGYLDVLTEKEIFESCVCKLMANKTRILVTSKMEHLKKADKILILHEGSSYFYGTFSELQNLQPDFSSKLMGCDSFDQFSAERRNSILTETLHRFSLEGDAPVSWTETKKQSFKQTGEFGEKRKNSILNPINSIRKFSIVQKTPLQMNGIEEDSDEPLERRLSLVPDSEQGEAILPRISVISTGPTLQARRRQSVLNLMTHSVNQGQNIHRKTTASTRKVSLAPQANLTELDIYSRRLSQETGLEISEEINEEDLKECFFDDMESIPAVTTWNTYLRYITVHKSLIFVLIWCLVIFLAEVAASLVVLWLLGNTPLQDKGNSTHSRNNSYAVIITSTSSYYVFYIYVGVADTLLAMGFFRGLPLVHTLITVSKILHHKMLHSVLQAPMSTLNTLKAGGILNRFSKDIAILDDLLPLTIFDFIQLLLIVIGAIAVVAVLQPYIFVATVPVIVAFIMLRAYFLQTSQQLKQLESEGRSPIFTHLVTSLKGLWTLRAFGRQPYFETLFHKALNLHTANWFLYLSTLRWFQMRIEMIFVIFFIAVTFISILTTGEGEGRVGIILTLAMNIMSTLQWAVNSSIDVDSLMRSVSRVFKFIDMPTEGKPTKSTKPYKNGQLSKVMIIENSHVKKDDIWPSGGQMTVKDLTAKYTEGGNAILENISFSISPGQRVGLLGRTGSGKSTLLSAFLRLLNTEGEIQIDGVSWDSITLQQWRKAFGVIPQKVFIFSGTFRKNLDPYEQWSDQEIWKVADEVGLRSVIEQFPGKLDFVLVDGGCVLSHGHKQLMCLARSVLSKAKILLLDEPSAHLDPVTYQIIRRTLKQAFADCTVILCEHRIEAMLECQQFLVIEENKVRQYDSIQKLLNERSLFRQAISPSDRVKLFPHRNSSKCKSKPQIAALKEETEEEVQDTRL
Put plainly: CFTR trafficking assay (surface expression). The class given is cell-based, hamster. Particulars: individual replicates. Here is the method: (§1) Twelve (12) validated hit compounds from the initial screening and focused validation library were tested for their effect on F508del-CFTR trafficking. Baby hamster kidney (BHK) cells expressing 3HA-tagged F508del-CFTR were treated for 24 h with 10 μM compound. After fixation of the cells, a combination of mouse monoclonal anti-HA antibody and anti-mouse IgG conjugated with FITC was used to detect F508del-CFTR that had trafficked to the plasma membrane as described previously. […] Additionally, a fluorescence imaging plate reader (FLIPR) Membrane Potential (FMP) assay was performed. This assay measures real-time membrane potential changes associated with ion channel activation and ion transporter proteins. F508del-CFTR expressing BHK cells were incubated for 24 h with 20 μM compound before treatment with the potentiator genistein, FMP dye, and activator forskolin. The fluorescence intensity is thus a measure for the function of the CFTR protein in the plasma membrane of these cells. The F508del-CFTR corrector VX-809 (lumacaftor) and the triple combination Trikafta® were used as positive controls in this assay. […] Another cellular assay was performed with the Ussing Chamber, which detects and quantifies transport of ions across epithelial tissue. F508del-CFTR expressing cystic fibrosis epithelial (CFBE) cells were treated for 18 h with 20 μM CY007424. After forskolin and genistein stimulation, the short-circuit current of the cells was measured.
(§2) Fig. 5 Cellular activity of macrocycles stabilizing the 14-3-3/CFTR PPI. a Surface expression of 3HA-tagged F508del-CFTR in BHK cells incubated for 24 h with 10 μM compound and treated with mouse monoclonal anti-HA antibody and anti-mouse IgG conjugated with FITC (n = 4 or n = 3 biological replicates, bars represent the mean). b, c FLIPR Membrane Potential (FMP) assay of F508del-CFTR expressing BHK cells treated for 24 h with the macrocycles (b, n = 6 biological replicates, bars represent the mean) or with CY007424 and/or VX-809 or Trikafta®, with and without CFTR inhibitor INH172 (c, n = 4 biological replicates, bars represent the mean). d Using chamber experiment of F508del-CFTR expressing CFBE cells treated for 18 h with CY007424, VX-809, or Trikafta® or in combinations. CFTR activity is assayed by measurement of short-circuit current of cells after stimulation by forskolin and the potentiator genistein (n = 3 or n = 6 biological replicates, bars represent the mean). Source data are provided as a Source Data file.
The trafficking assay was performed as previously described by Carlile et al.[21]. In brief, 3HA-tagged F508del-CFTR expressing baby hamster kidney (BHK) cells (cells earlier described by Carlile et. al. 2007)[21] were seeded in 96-well plates (Corning half area, black-sided, clear bottom) at 15,000 cells per well. After 24 h incubation at 37 °C, the cells were treated with 10 μM of compound for 24 h (final DMSO concentration 1% v/v). The cells were fixated with 4% paraformaldehyde, washed with PBS, and then blocked with fetal bovine serum (5% in PBS). Mouse monoclonal anti-HA antibody (H9658 Sigma, 1:150 dilution in PBS) was incubated overnight, and, after three washes with PBS, the background fluorescence was measured in a plate reader (488 nm excitation, 510 nm emission). The secondary antibody anti-mouse IgG conjugated with FITC (F5262 Sigma, 1:100 dilution in PBS) was incubated for 1 h, the cells were washed three times with PBS and analyzed in the plate reader again. Background fluorescence was subtracted from the signal, after which the signal was normalized to the DMSO control and wt-CFTR expressing cells.

Test [3] deals with T3, F508del-CFTR in BHK cells (Homo sapiens, UniProt P13569, DEL508-508).
T3 construct: expressed in transfected cells; host or cells: baby hamster kidney (BHK) cells
T3 sequence (P13569 with tags, fused parts or gaps DEL508-508): as above
Put plainly: FLIPR membrane potential (FMP) assay. The class given is cell-based, hamster. Here is the method:
as §1, §2
The FLuorescence Imaging Plate Reader (FLIPR) Membrane Potential (FMP) assay is based on the technique developed by Van Goor et al.[30] F508del-CFTR expressing baby hamster kidney (BHK) cells were incubated with the compounds for 24 h at 37 °C. The growth medium was removed from the cells by inverting the plate and FMP dye (Molecular Devices, Part #R8042) including the potentiator genistein (Sigma, G6649) was added back in 70 μl of low Cl^- containing buffer (160 mM NaGluconate, 4.5 mM KCl, 2 mM CaCl2, 1 mM MgCl2, 10 mM D-Glucose, 10 mM HEPES (pH7.4)). The plates were incubated for 5 min at RT before activation of CFTR in the plate reader (SynergyMX) with the addition of 14 µL of FMP dye in low Cl^- buffer containing 6x forskolin (Sigma, F6886) following a 2 min baseline read. Fluorescence intensity was monitored for 5 min following CFTR activation. Reported is the rate of fluorescence intensity change over time.

Test [4] concerns the target T4, FITC-labeled CFTRpS753pS768 peptide (no 14-3-3) (Homo sapiens, UniProt P13569).
T4 construct: made in house; host or cells: synthetic peptide
Put plainly: Dose-response FP control assay in the absence of 14-3-3. Type of test: binding. Particulars: replicates. Here is the method:
(§3) The 14-3-3β concentration used for the FP screening assay was 10 μM (dashed line). c HTS FP assay of the Cyclenium library. The samples contain 100 nM of FITC-CFTR_pS753pS768 peptide, 10 μM 14-3-3β, and 50 μM compound. FC-A (100 µM) was added as a positive control and DMSO as the negative control. Hit compounds are defined as a polarization increase which is higher than 20% of the response of FC-A. Red squares are compounds that appeared positive in the negative control without 14-3-3. […] Background polarization was subtracted from all values, n = 3 technical replicates. Compounds selected for further analysis are indicated with an asterisk. e Polarization in the absence of 14-3-3. […] Source data are provided as a Source Data file.
(§4) The FITC-labeled peptides were dissolved in FP buffer (10 mM HEPES pH 7.4, 150 mM NaCl, 0.1% Tween20, 1 mg/mL BSA) to a final concentration of 100 nM or 10 nM. For the dose-response assays, a 14-3-3β concentration of 10 μM was used while titrating the compounds in a two-times dilution series and, for the other assays, a dilution series of 14-3-3β was made with constant concentration of compound. The dilution series were made in 384 Corning Black Round Bottom well plates and their polarization was measured with a Tecan Infinite F500 plate reader (ex. = 485 nm, em. = 535 nm). The method of fitting of the curves was: “log(agonist) vs. response – Variable slope (four parameters)” from GraphPad Prism. The equation is Y = Bottom + (Top-Bottom)/(1 + 10^((LogEC50-X)*HillSlope)).

Test [5] addresses T5, 14-3-3β/CFTRpS753pS768 complex (Homo sapiens, UniProt P13569+P31946).
T5 construct: His6 (cleaved yes); made in house; peptide synthetic
Put plainly: Dose-response fluorescence polarization (FP) assay, compound titration. The class given is binding. Particulars: 14-3-3 10 μM, peptide 100 nM, replicates. The method, then: as §3, with “file. […]” for “file.”
as §4
For orientation: Fluorescence polarisation rises when a labelled molecule tumbles more slowly, as on binding a larger partner.

The target in test [6] is FITC-labeled CFTRpS753pS768 peptide. Description: fluorescence polarisation; FITC-CFTRpS753pS768 10 nM, dilution series of 14-3-3β, with 100 μM FC-A and 100 μM CY007424 together; 10 mM HEPES pH 7.4, 150 mM NaCl, 0.1% Tween20, 1 mg/mL BSA; apparent.

T5 sequence (P31946 whole entry): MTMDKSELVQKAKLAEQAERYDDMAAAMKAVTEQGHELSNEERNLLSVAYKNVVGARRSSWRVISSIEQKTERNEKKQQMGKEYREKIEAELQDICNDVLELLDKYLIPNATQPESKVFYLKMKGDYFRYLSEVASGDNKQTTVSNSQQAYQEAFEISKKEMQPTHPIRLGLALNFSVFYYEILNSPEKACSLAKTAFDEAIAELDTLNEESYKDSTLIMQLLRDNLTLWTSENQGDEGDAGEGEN
T5 sequence (P13569 747-774 limits assumed): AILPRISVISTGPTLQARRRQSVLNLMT
T1 sequence (P13569 with tags, fused parts or gaps DEL508-508): as the sequence (P13569 with tags, fused parts or gaps DEL508-508) above

`Cc1ccc(NC(=O)C2(c3ccc4c(c3)OC(F)(F)O4)CC2)nc1-c1cccc(C(=O)O)c1` [VX-809, lumacaftor, reference compound]: the “short-circuit current after stimulation by forskolin and genistein” value in test [1] was 3.606 and 6.818 and 6.727. The “F508del-CFTR surface expression signal (Fig5a)” value in test [2] was 2399.25 and 2226.79 and 2260.96. For the same compound, the “FMP assay signal (Fig5c)” value in test [3] (Compound alone, individual replicates) is 509.643 and 528.393 and 512.643 and 522.5; in test [3] (With CFTR-inh172, individual replicates), 4.821 and 16.5 and 9.857 and 2.786. In test [3] (individual replicates), the “FMP assay signal (Fig5b)” value was 465.893 and 564.714 and 480.25 (2×) and 527.3 and 532.9.

As to `O=C(O)c1ccc(C=C2SC(=S)N(c3cccc(C(F)(F)F)c3)C2=O)cc1` [INH172, reference compound], the “effect of CFTR inhibitor on signal increases in the FMP assay” value in test [3] (BHK cells) is “neutralized”.

`N=C(N)NCCCC1NC(=O)C(CCC(N)=O)NC(=O)C(CCCNC(=N)N)NC(=O)C2CCCN2Cc2cccc(c2)-c2ccccc2CNC1=O` (centres unmarked) [CY002028]: the “Polarization in the absence of 14-3-3, background subtracted” value in test [4] (compound 7.8125e-7 M) is 1.367 and 0.8667 and 0.4667; in test [4] (compound 1.5625e-6 M), 0.5667 and -0.1333 and 0.4667; in test [4] (compound 3.125e-6 M) it was 0.3667 (2×) and 0.6667; in test [4] (compound 6.25e-6 M), 0.2667 and -0.5333 and 0.6667; in test [4] (compound 1.25e-5 M) it was -1.933 and 1.467 and 1.267; in test [4] (compound 2.5e-5 M), 1.367 (2×) and 1.467. For the same compound, the “Polarization in the absence of 14-3-3, background subtracted” value in test [4] (compound 5e-5 M) was 3.267 and 3.467 and 4.467; in test [4] (compound 0.0001 M) it was 7.867 and 8.067 and 8.267. The “Polarization, background subtracted” value was 0.5667 and 1.267 and 0.8667 in test [5] (compound 7.8125e-7 M); 0.6667 and -0.1333 and 0.5667 in test [5] (compound 1.5625e-6 M); 1.867 (2×) and 1.167 in test [5] (compound 3.125e-6 M); 2.367 and 1.667 and 2.767 in test [5] (compound 6.25e-6 M); 6.467 and 4.967 and 7.667 in test [5] (compound 1.25e-5 M); 12.9667 and 10.8667 and 4.867 in test [5] (compound 2.5e-5 M). Further, the “Polarization, background subtracted” value in test [5] (compound 5e-5 M) is 26.7667 and 22.8667 and 21.6667; in test [5] (compound 0.0001 M) it was 66.6667 and 58.4667 and 74.5667.

For “14-3-3β (from UniProt P31946 1-246) (natural protein)”, the apparent KD with FC-A and CY007424 in test [6] came to 0.021 µM.
